Reference: a melting point compilation (Tetko et al.; mined from patent text by program, amines drawn as free bases though some values may be those of a salt)

In the case of Oc1ccc(-c2nc3cc(O)cc(Br)c3o2)c(C(F)(F)F)c1, the melting point is reported as 183 to 185 °C.
For CN(C)CCOc1ccc2c(c1)[nH]c(=O)c1c3ccccc3oc21, the melting point was 213 to 217 °C.
Cc1cc(C(=O)NC2=NC(C)CC2(c2ccccc2)c2ccccc2)[nH]n1 (stereo unspecified) gave a melting point of 221 to 223 °C.
Compound CN(c1cccc2cc(C3=NCC(CN4CCS(=O)CC4)S3)[nH]c12)S(=O)(=O)c1nccn1C (stereo unspecified) has a melting point of 161 to 162 °C.
Cc1cc(C(=O)c2cccs2)cc(C)c1OCC(=O)O showed a melting point of 115 °C.
Work on O=C1Nc2ccccc2C1CCCCN1CCN(c2cccc(Cl)c2)CC1 (stereo unspecified) yielded a melting point of 112 to 114 °C.
With CCOC(=O)C1=C(C)NC(=O)N(CCCN(C)Cc2ccccc2)C1c1cccc(Cl)c1Cl (stereo unspecified) the melting point was 154 to 156 °C.
In the case of N#CC(CC(=O)O)c1ccc(Cl)c(Cl)c1 (stereo unspecified), the melting point is reported as 104 °C.
With O=C(O)CCCCCc1nn(-c2ccc(Cl)cc2)c2c1CCC2 the melting point was 99 to 101 °C.
In the case of O=C(O)C[C@H]1CCCC[C@H]1n1nc(-c2c(-c3ccccc3)nn3ccccc23)ccc1=O (relative stereo), the melting point is reported as 238 to 240 °C.
For CCCn1cnc(C(N)=O)c1NC(=S)NC(=O)c1ccccc1, the melting point was 163 to 164 °C.
Work on COc1cc2c(cc1F)CCN=C2C1(c2ccc(Cl)cc2Cl)CC1 yielded a melting point of 151 to 154 °C.
Work on C=C(C)c1ccc(C(F)(F)C(F)(F)c2ccccc2)cc1 yielded a melting point of 97 to 104 °C.
With CSc1c(Cl)nc(Cl)nc1SC#N the melting point was 143 to 144 °C.
With Cc1ccc(F)c(C(C)Oc2ccc3nc(-c4ccccc4OC(N)=O)sc3c2)c1Cl (stereo unspecified) the melting point was 205 °C.
CCN(CC)c1ccc(C=NNC(=O)c2ccc(O)cc2)cc1 gave a melting point of 228 °C.
With CC(C)(C)Nc1c(NCc2ccc(Cl)c(Cl)c2)c(=O)c1=O the melting point was 302 to 303 °C.
With CC(=O)Nc1ccc(C(=O)c2ccncc2)cc1 the melting point was 215 °C.
C[C@H]1CCCN(CCCOc2ccc(-c3nc4cccnc4c(=O)n3C)cc2)C1 showed a melting point of 83.5 to 88.5 °C.
In the case of COC(=O)CC(CSC(C)=O)C(=O)O (stereo unspecified), the melting point is reported as 120 to 121 °C.
COc1ccc2nc(NC(=O)C(CC3CCCC3)c3ccc(S(=O)(=O)NCc4cccs4)cc3)sc2n1 (stereo unspecified) showed a melting point of 263 to 268 °C.
With CC(C)(C)N(NC(=S)c1ccc(Cl)cc1)C(=O)c1ccccc1 the melting point was 160 to 162 °C.
CCCCc1cnc2ccccc2c1Nc1ccc(C(=O)O)cc1 showed a melting point of 276 °C.
With CCCCc1ncc(/C=C(\Cc2cccs2)c2nnn[nH]2)n1Cc1cccc(Cl)c1Cl the melting point was 204 to 205 °C.
Work on C#C[C@@H](C)N(O)C(N)=O yielded a melting point of 120 to 123 °C.
For CCOC(=O)Cc1c(-c2ccc(Cl)cc2)nn2cccnc12, the melting point was 221 to 225 °C.
Cc1cccc(C(=O)O)c1NC(=O)COc1ccccc1 gave a melting point of 174 to 176 °C.
For CN(C)CCNC(=O)C(=O)c1ccc(OCCOc2ccc3ccccc3c2)cc1, the melting point was 102 to 104 °C.
Compound CC1(C)CCC(Cc2ccc(Cl)cc2)=CC1=O has a melting point of 87 to 90 °C.
O=[N+]([O-])C1=C2N(Cc3ccc(Cl)nc3)CCN2C2CCC1O2 (stereo unspecified) gave a melting point of 149 to 150 °C.
CN1CC(c2cccc(Br)c2)=C(c2ccc(S(C)(=O)=O)cc2)C1=O showed a melting point of 138 to 139 °C.
Compound Cc1ccc(C(=O)Nc2cc(Cl)c(O)c(Cl)c2)c(O)c1 has a melting point of 246 to 247 °C.
In the case of COc1ncnc(OC)c1CON=C(C)c1cc(C)cc(C)n1, the melting point is reported as 125 to 126 °C.
With O=CN(O)C(CCO)CS(=O)(=O)c1ccc(-c2ccc(F)cc2)cc1 (stereo unspecified) the melting point was 160 to 162 °C.
O=C(O)CON=C1CCCc2cc(OCCn3ccnc3)ccc21 showed a melting point of 193 to 195 °C.
In the case of CC(C)(C)c1ccccc1N1CCN(C(=O)C2CCC(=O)N2CC(=O)O)CC1 (stereo unspecified), the melting point is reported as 273 °C.
Work on S=c1nc2c(Cl)cccn2c(=S)n1-c1ncccc1Cl yielded a melting point of 120 to 122 °C.
Compound COC(C)=CC(=O)NC1(C)CCCCC1 has a melting point of 105 °C.
In the case of O=C(O)c1cn(C2CC2)c2cc(N3CCC(c4ccccn4)C3)c(F)cc2c1=O (stereo unspecified), the melting point is reported as 216 to 219 °C.
In the case of CCCn1cc(C(=O)NCc2ccc(Cl)cc2)c(=O)c2cc(CCl)oc21, the melting point is reported as 160 to 162 °C.
CN1C(=O)N(Cc2cc(C(F)(F)F)cc(C(F)(F)F)c2)CC1(CCO)c1ccc(Cl)c(Cl)c1 (stereo unspecified) showed a melting point of 96 °C.
